# Article PMC6272775, “Three New Pigment Protein Tyrosine Phosphatases Inhibitors from the Insect Parasite Fungus Cordyceps gracilioides: Terreusinone A, Pinophilin C and Cryptosporioptide A” (Molecules, 2015)
# How the values were obtained:
# Format in all cases: biochemical
# [1] = target: T1, SHP1 (Homo sapiens, UniProt P29350); test: PTP assay with pNPP as substrate, SHP1; settings: GST-ΔSHP1 PTP activity domain, 37 °C, pH 5.5
# T1 construct: fusion proteins which only carry the PTP activity domain were expressed in Escherichia coli DH5α; GST (N); made in house; host or cells: Escherichia coli DH5α
# T1 sequence (P29350 244-515 limits assumed): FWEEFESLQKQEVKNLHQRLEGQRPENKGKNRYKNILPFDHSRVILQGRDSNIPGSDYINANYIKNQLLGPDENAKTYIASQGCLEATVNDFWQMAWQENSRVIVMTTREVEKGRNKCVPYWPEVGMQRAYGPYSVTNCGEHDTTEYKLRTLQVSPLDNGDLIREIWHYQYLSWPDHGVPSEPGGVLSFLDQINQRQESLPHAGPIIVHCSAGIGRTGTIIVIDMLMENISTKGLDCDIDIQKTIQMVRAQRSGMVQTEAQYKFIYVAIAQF
# Excerpt: (§1) Protein tyrosine phosphatases (PTPs) constitute a large family of signaling enzymes that control the cellular levels of protein tyrosine phosphorylation. Several “classical” PTPs are attractive therapeutic targets, including PTP1B for obesity and Type II diabetes, SHP1, and SHP2 and CDC25B for cancer. GST-ΔPTP1B, GST-ΔSHP2, GST-ΔSHP1, GST-ΔLAR and GST-ΔCDC25B fusion proteins which only carry the PTP activity domain were expressed in Escherichia coli DH5α and affinity purified with glutathione Sepharose (Amersham Biosciences, Piscataway, NJ, USA). p-Nitrophenyl phosphate (pNPP) was used in the enzymatic reactions to determine the intrinsic catalytic activities of the PTPs. All assays using pNPP as the substrate were performed in a buffered reaction medium containing 10 mM of sodium acetate (NaAc), 1 mM of ethylenediaminetetraacetic acid and 1 mM of dithiothreitol at 37 °C, pH 5.5. Sodium orthovanadate was used as the positive control. Every experiment was performed in triplicate. The inhibitory activity measurements of PTPs were performed with different concentrations (0, 2.5, 5, 10, 20, 40 µg mL^−1) of inhibitor and 20 µg mL^−1 of PTPs. The reaction mixture was incubated at 37 °C for 15 min and the catalytic activity was detected by monitoring the absorbance at 405 nm immediately after adding 12.5 mM of pNPP. IC50 (the concentration of an inhibitor that is required for 50% inhibition of an enzyme) data were derived from the experimental results.
# [2] = target: T2, LAR (Homo sapiens, UniProt P10586); test: PTP assay with pNPP as substrate, LAR; settings: GST-ΔLAR PTP activity domain, 37 °C, pH 5.5
# T2 construct: fusion proteins which only carry the PTP activity domain were expressed in Escherichia coli DH5α; GST (N); made in house; host or cells: Escherichia coli DH5α
# T2 sequence (P10586 1352-1607 limits assumed): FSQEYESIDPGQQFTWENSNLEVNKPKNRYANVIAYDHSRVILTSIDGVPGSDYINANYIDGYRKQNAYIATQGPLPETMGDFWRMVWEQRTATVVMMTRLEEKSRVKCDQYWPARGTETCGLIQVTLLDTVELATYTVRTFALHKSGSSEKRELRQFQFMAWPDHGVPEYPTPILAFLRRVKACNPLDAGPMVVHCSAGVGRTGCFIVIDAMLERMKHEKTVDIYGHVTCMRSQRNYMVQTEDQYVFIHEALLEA
# Excerpt: as §1
# [3] = target: T3, SHP2 (Homo sapiens, UniProt Q06124); test: PTP assay with pNPP as substrate, SHP2; settings: GST-ΔSHP2 PTP activity domain, 37 °C, pH 5.5
# T3 construct: fusion proteins which only carry the PTP activity domain were expressed in Escherichia coli DH5α; GST (N); made in house; host or cells: Escherichia coli DH5α
# T3 sequence (Q06124 247-517 limits assumed): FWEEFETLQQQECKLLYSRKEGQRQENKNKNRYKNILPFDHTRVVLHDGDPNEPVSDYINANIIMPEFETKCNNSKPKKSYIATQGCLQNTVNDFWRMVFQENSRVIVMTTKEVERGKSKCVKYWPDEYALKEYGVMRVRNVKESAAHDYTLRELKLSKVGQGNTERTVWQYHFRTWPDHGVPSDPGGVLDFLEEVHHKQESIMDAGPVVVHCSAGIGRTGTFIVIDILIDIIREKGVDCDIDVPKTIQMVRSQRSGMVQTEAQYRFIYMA
# Excerpt: as §1
# [4] = target: T4, CDC25B (Homo sapiens, UniProt P30305); test: PTP assay with pNPP as substrate, CDC25B; settings: GST-ΔCDC25B PTP activity domain, 37 °C, pH 5.5
# T4 construct: fusion proteins which only carry the PTP activity domain were expressed in Escherichia coli DH5α; GST (N); made in house; host or cells: Escherichia coli DH5α
# T4 sequence (P30305 431-538 limits assumed): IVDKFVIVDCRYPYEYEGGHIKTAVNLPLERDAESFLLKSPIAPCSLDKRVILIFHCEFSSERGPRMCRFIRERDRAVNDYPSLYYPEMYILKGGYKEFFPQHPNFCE
# Excerpt: as §1
# [5] = target: T5, PTP1B (Homo sapiens, UniProt P18031); test: PTP assay with pNPP as substrate, PTP1B; settings: GST-ΔPTP1B PTP activity domain, 37 °C, pH 5.5
# T5 construct: fusion proteins which only carry the PTP activity domain were expressed in Escherichia coli DH5α; GST (N); made in house; host or cells: Escherichia coli DH5α
# T5 sequence (P18031 3-277 limits assumed): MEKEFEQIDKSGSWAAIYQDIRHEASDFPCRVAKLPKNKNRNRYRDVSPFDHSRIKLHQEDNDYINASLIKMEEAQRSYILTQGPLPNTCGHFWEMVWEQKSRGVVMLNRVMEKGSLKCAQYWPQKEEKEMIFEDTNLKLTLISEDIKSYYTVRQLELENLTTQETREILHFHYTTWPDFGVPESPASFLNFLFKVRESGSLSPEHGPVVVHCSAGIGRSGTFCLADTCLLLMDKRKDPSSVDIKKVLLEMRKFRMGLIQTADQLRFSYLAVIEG
# Excerpt: Protein tyrosine phosphatases (PTPs) constitute a large family of signaling enzymes that control the cellular levels of protein tyrosine phosphorylation. Several “classical” PTPs are attractive therapeutic targets, including PTP1B for obesity and Type II diabetes, SHP1, and SHP2 and CDC25B for cancer. GST-ΔPTP1B, GST-ΔSHP2, GST-ΔSHP1, GST-ΔLAR and GST-ΔCDC25B fusion proteins which only carry the PTP activity domain were expressed in Escherichia coli DH5α and affinity purified with glutathione Sepharose (Amersham Biosciences, Piscataway, NJ, USA). p-Nitrophenyl phosphate (pNPP) was used in the enzymatic reactions to determine the intrinsic catalytic activities of the PTPs. All assays using pNPP as the substrate were performed in a buffered reaction medium containing 10 mM of sodium acetate (NaAc), 1 mM of ethylenediaminetetraacetic acid and 1 mM of dithiothreitol at 37 °C, pH 5.5. […] Every experiment was performed in triplicate. The inhibitory activity measurements of PTPs were performed with different concentrations (0, 2.5, 5, 10, 20, 40 µg mL^−1) of inhibitor and 20 µg mL^−1 of PTPs. The reaction mixture was incubated at 37 °C for 15 min and the catalytic activity was detected by monitoring the absorbance at 405 nm immediately after adding 12.5 mM of pNPP.
IC50 [1],IC50 [2],IC50 [3],IC50 [4],IC50 [5],IC50 Values SHP1 [1],IC50 Values SHP2 [3],Structure (SMILES)
11.6 µM,> 119 µM,13.5 µM,18 µM,17.3 µM,–,–,"CC1(O)C2OC(=O)CCC(=O)NC3(Oc4ccc(C(=O)O)c(O)c4C(=O)C13)C2(C)O (single isomer, unassigned; (+)) [Compound 3]"
15.6 µM,29.6 µM,> 139 µM,11.4 µM,34.9 µM,–,–,"COC(c1cc2c([nH]1)C(=O)c1cc(C(OC)C(C)C)[nH]c1C2=O)C(C)C (centres unmarked) [Compound 1, 2,6-bis(1-methoxy-2-methylpropyl) pyrrolo[2,3-f]indole-4,8(1H,5H)-dione]"
8.17 µM,11.3 µM,19.2 µM,10.8 µM,16.3 µM,–,–,"Cc1cc(O)cc(O)c1C(=O)O[C@]1(C)C(=O)C=C2C=C(/C=C/C(=O)O)OC[C@H]2[C@@H]1O [Compound 2, (E)-3-((7S,8S,8aS)-7-((2,4-dihydroxy-6-methylbenzoyl)oxy)-8-hydroxyl-7-methyl-6-oxo-6,7,8,8a-tetra-hydro-1H-isochromen-3-yl)acrylic acid]"
–,–,–,–,–,4.3 µg/mL,122.2 µg/mL,"[Na+].[Na+].[Na+].[O]=[V]([O-])([O-])[O-] [Sodium orthovanadate, reference compound]"
